Measured values published in patent US11492347B2 (ENYO PHARMA, priority 2018, dated 2022).
Counter-ions that a name gives are not always drawn.

Assays:
[1] = target: T1, CISD3 Gene Product (Miner2) (Homo sapiens, UniProt P0C7P0); assay: Stability of Fe-S cluster binding of purified NEET protein (absorbance 458 nm); assay type: biochemical; details: for Residual cluster bound at end of experiment (Percentage Absorbance 458 nm at time zero): CISD3 gene product 20 μM, pH 6, at 180 minutes, vehicle control 11%; for Residual cluster bound at end of experiment (Percentage Absorbance 458 nm at time zero) / Time (in minutes) to achieve 50% loss of bound cluster (Absorbance 458 nm): compound 60 μM; for Time (in minutes) to achieve 50% loss of bound cluster (Absorbance 458 nm): Miner2 20 μM, pH 6, 37° C., run time 180 minutes, vehicle control 60; for Stabiliser or destabiliser of Fe-S cluster binding by CISD3 Gene Product (Miner2): time to 50% cluster loss changed by more than 25% compared to the Control sample, at the concentrations tested
T1 sequence (P0C7P0 15-127): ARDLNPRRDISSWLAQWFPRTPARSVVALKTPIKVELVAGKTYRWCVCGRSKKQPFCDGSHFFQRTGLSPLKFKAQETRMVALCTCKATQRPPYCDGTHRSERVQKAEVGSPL
Protocol: (§1) The modulator effect on the NEET proteins encoded by human CISD1, CISD2, and CISD3 genes by the compounds of the invention has been tested and is reported below. Particularly, the biochemical function of the NEET proteins is measured by the stability of Fe—S cluster binding of the purified NEET proteins.
(§2) The Fe—S cluster binding capacity of NEET proteins is known to be coordinated by four amino-acids in a stretch of 16 (three Cysteine and one Histidine). As the lability of the Fe—S cluster of NEET proteins is sensitive to the environment, cluster stability measurements are one of the measures of interactions of NEET proteins with small molecules and compounds. NEET protein/2Fe-2S cluster stability can be assessed by monitoring the decay in absorbance of its characteristic 458-nm peak (characteristic of the oxidized 2Fe-2S cluster) over time. Each NEET protein (mitoNEET, NAF-1 and Miner 2) was tested for its Fe—S binding in the absence or presence of a compound according to the invention (see table 4 below). The rate of cluster release (time in minutes to achieve 50% loss of bound Fe—S cluster) was compared for each NEET protein in the presence of one of the compounds of the invention (in a 1:3 protein:compound molar ratio) relative to each protein alone.
(§3) At pH 6, all the three NEET proteins (mitoNEET, NAF-1 and Miner 2) have a characteristic rate of loss of the bound Fe—S cluster that can be measured by the decrease of absorbance at wavelength 458 nm over time, using a spectrophotometer. Thus, Bis-Tris buffer (100 mM Bis-Tris pH6, 100 mM Nacl) was used at pH 6 to dilute either DMSO (Blank sample: Bis-Tris Buffer pH 6, 66 μM DMSO), DMSO and one of the three NEET proteins (Control sample: Bis-Tris Buffer pH 6, 66 μM DMSO, 20 μM purified NEET protein) or DMSO, one of the three NEET proteins and a compound of the invention (Test sample: Bis-Tris Buffer pH 6, 66 μM DMSO, 20 μM purified NEET protein, 60 μM compound of the invention).
(§4) A reaction mix containing DMSO diluted in the Bis-Tris Buffer with or without a compound of the invention was prepared. The purified NEET protein was the last component added to the reaction mix which was then aliquoted into 4 replicates in 96 wells plates. The absorbance at wavelength 458 nm was taken at 5 minutes intervals at 37° C. with a spectrofluorimeter. The assay run time for CISD2 gene product (NAF-1) was 500 minutes and 180 minutes for both the CISD1gene product (mitoNEET) and the CISD3 gene product (Miner2).
(§5) In addition to time monitoring, residual bound Fe—S cluster to NEET protein was measured at the final point of the spectrometry assay for each Test sample and compared to the Control sample data (in parenthesis table 4). This residual binding is measured by the differential percentage between the absorbance 458 nm at time zero and the absorbance 458 nm at the end of the experiment (i.e. respectively 500 or 180 minutes as described here above), showing the percentage of NEET protein still able to bind a Fe—S cluster.
(§6) Analysis of the absorbance enables the time for which 50% loss of bound Fe—S cluster is reached (i.e. a 50% absorbance decrease at 458 nm) for each Test sample and each Control sample (in parenthesis table 4) to be determined. The data are then compared to determine whether the compound of the invention stabilizes or destabilizes the NEET protein/Fe—S cluster binding.

[2] = target: T2, CISD1 Gene Product (mitoNEET) (Homo sapiens, UniProt Q9NZ45); assay: as above; assay type: biochemical; details: for Time (in minutes) to achieve 50% loss of bound cluster (Absorbance 458 nm) / Residual cluster bound at end of experiment (Percentage Absorbance 458 nm at time zero): mitoNEET 20 μM, compound 60 μM; for Time (in minutes) to achieve 50% loss of bound cluster (Absorbance 458 nm): pH 6, 37° C., run time 180 minutes, vehicle control 80; for Residual cluster bound at end of experiment (Percentage Absorbance 458 nm at time zero): pH 6, at 180 minutes, vehicle control 16%
T2 sequence (Q9NZ45 33-108 limits assumed): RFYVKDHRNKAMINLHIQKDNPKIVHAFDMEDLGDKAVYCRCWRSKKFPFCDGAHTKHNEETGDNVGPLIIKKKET
Protocol: as §1, §2, §3, §4, §5, §6

[3] = target: T3, CISD2 Gene Product (NAF-1) (Homo sapiens, UniProt Q8N5K1); assay: as above; assay type: biochemical; details: for Time (in minutes) to achieve 50% loss of bound cluster (Absorbance 458 nm) / Residual cluster bound at end of experiment (Percentage Absorbance 458 nm at time zero): NAF-1 20 μM, compound 60 μM; for Time (in minutes) to achieve 50% loss of bound cluster (Absorbance 458 nm): pH 6, 37° C., run time 500 minutes, vehicle control 310 or 210; for Residual cluster bound at end of experiment (Percentage Absorbance 458 nm at time zero): pH 6, at 500 minutes, vehicle control 3%; for Stabiliser or destabiliser of Fe-S cluster binding by CISD2 Gene Product (NAF-1): time to 50% cluster loss changed by more than 25% compared to the Control sample, at the concentrations tested
T3 sequence (Q8N5K1 57-135 limits assumed): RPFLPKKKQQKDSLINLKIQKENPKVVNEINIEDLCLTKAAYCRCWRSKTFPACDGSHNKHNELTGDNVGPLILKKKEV
Protocol: as §1, §2, §3, §4, §5, §6

[4] = system: H1N1 (influenza A/New Caledonia/20/99); assay: microbe, parasite or virus in culture; assay type: cell-based; details: H1N1, A549, 48 h

CN(c1ccc(C(=O)Nc2sc3c(c2C(=O)O)CC(C)(C)CC3(C)C)cc1)C1CCOCC1 [Compound #135, 5,5,7,7-Tetramethyl-2-[[4-[methyl(tetrahydropyran-4-yl)amino]benzoyl]amino]-4,6-dihydrobenzothiophene-3-carboxylic acid]
Residual cluster bound at end of experiment (Percentage Absorbance 458 nm at time zero) [1]: 20% (11%)
Time (in minutes) to achieve 50% loss of bound cluster (Absorbance 458 nm) [1]: 80 min
Stabiliser or destabiliser of Fe-S cluster binding by CISD3 Gene Product (Miner2) [1]: Stabilisers
Time (in minutes) to achieve 50% loss of bound cluster (Absorbance 458 nm) [2]: 100 (80) minutes
Residual cluster bound at end of experiment (Percentage Absorbance 458 nm at time zero) [2]: 24% (16%)
Stabiliser or destabiliser of Fe-S cluster binding by CISD1 Gene Product (mitoNEET) ([2]; time to 50% cluster loss changed by more than 25% compared to the Control sample, at the concentrations tested): stabilisers
Time (in minutes) to achieve 50% loss of bound cluster (Absorbance 458 nm) [3]: 160 (310) minutes
Residual cluster bound at end of experiment (Percentage Absorbance 458 nm at time zero) [3]: 16% (3%)
Stabiliser or destabiliser of Fe-S cluster binding by CISD2 Gene Product (NAF-1) [3]: destabilisers
IC50 [4]: 6.1 nM

COc1ccc(C(=O)Nc2sc3c(c2C(=O)O)CCC(C)(C)C3)cc1 [Compound #20, 2-[(4-Methoxybenzoyl)amino]-6,6-dimethyl-5,7-dihydro-4H-benzothiophene-3-carboxylic acid]
Residual cluster bound at end of experiment (Percentage Absorbance 458 nm at time zero) [1]: 9% (11%)
Time (in minutes) to achieve 50% loss of bound cluster (Absorbance 458 nm) [1]: 35 (60) minutes
Stabiliser or destabiliser of Fe-S cluster binding by CISD3 Gene Product (Miner2) [1]: Destabilisers
Time (in minutes) to achieve 50% loss of bound cluster (Absorbance 458 nm) [2]: 65 (80) minutes
Residual cluster bound at end of experiment (Percentage Absorbance 458 nm at time zero) [2]: 0% (16%)
Time (in minutes) to achieve 50% loss of bound cluster (Absorbance 458 nm) [3]: 300 (310) minutes
Residual cluster bound at end of experiment (Percentage Absorbance 458 nm at time zero) [3]: 4% (3%)
IC50 [4]: 74 nM

CC1CC(C)(C)Cc2sc(NC(=O)c3ccc(NC4CCOCC4)cc3)c(C(=O)O)c21 (centres unmarked) [Compound #136, 4,6,6-Trimethyl-2-[[4-(tetrahydropyran-4-ylamino)benzoyl]amino]-5,7-dihydro-4H-benzothiophene-3-carboxylic acid]
Residual cluster bound at end of experiment (Percentage Absorbance 458 nm at time zero) [1]: 10% (11%)
Time (in minutes) to achieve 50% loss of bound cluster (Absorbance 458 nm) [1]: 45 (60) minutes
Stabiliser or destabiliser of Fe-S cluster binding by CISD3 Gene Product (Miner2) [1]: Destabilisers
Time (in minutes) to achieve 50% loss of bound cluster (Absorbance 458 nm) [2]: 75 (80) minutes
Residual cluster bound at end of experiment (Percentage Absorbance 458 nm at time zero) [2]: 2% (16%)
Time (in minutes) to achieve 50% loss of bound cluster (Absorbance 458 nm) [3]: 325 (310) minutes
Residual cluster bound at end of experiment (Percentage Absorbance 458 nm at time zero) [3]: 5% (3%)
IC50 [4]: 12 nM

COC1CN(c2ccc(C(=O)Nc3sc4c(c3C(=O)O)CCC(C)(C)C4)cc2)C1 [Compound #147, 2-[[4-(3-Methoxyazetidin-1-yl)benzoyl]amino]-6,6-dimethyl-5,7-dihydro-4H-benzothiophene-3-carboxylic acid]
Residual cluster bound at end of experiment (Percentage Absorbance 458 nm at time zero) [1]: 10% (11%)
Time (in minutes) to achieve 50% loss of bound cluster (Absorbance 458 nm) [1]: 60 (60) minutes
Time (in minutes) to achieve 50% loss of bound cluster (Absorbance 458 nm) [2]: 75 (80) minutes
Residual cluster bound at end of experiment (Percentage Absorbance 458 nm at time zero) [2]: 11% (16%)
Time (in minutes) to achieve 50% loss of bound cluster (Absorbance 458 nm) [3]: 85 (310) minutes
Residual cluster bound at end of experiment (Percentage Absorbance 458 nm at time zero) [3]: 5% (3%)
Stabiliser or destabiliser of Fe-S cluster binding by CISD2 Gene Product (NAF-1) [3]: destabilisers
IC50 [4]: 11.1 nM

CC1(C)CCc2sc(NC(=O)c3cccc(N4CCOCC4)n3)c(C(=O)O)c2C1 [#213, 5,5-Dimethyl-2-[(6-morpholinopyridine-2-carbonyl)amino]-6,7-dihydro-4H-benzothiophene-3-carboxylic acid]
IC50 [4]: 610 nM

CC1(C)CCc2sc(NC(=O)c3ccnc(N4CCOCC4)c3)c(C(=O)O)c2C1 [#221, 5,5-Dimethyl-2-[(2-morpholinopyridine-4-carbonyl)amino]-6,7-dihydro-4H-benzothiophene-3-carboxylic acid]
IC50 [4]: 380 nM

CC1(C)Cc2c(sc(NC(=O)c3ccc(NC4CCCCC4)cc3)c2C(=O)O)C(C)(C)C1 [Compound #149, 2-[[4-(Cyclohexylamino)benzoyl]amino]-5,5,7,7-tetramethyl-4,6-dihydrobenzothiophene-3-carboxylic acid]
IC50 [4]: 7.1 nM

CC1(C)CCc2sc(NC(=O)c3ccc(Br)cc3)c(C(=O)O)c2C1 [Compound #154, 2-[(4-Bromobenzoyl)amino]-5,5-dimethyl-6,7-dihydro-4H-benzothiophene-3-carboxylic acid]
IC50 [4]: 30 nM

CC1(C)Cc2c(sc(NC(=O)c3ccc(N4CC(F)(F)C4)cc3)c2C(=O)O)C(C)(C)C1 [Compound #148, 2-[[4-(3,3-Difluoroazetidin-1-yl)benzoyl]amino]-5,5,7,7-tetramethyl-4,6-dihydrobenzothiophene-3-carboxylic acid]
IC50 [4]: 2.6 nM

CC1(C)CCc2sc(NC(=O)c3ccc(OC(F)F)cc3)c(C(=O)O)c21 [Compound #39, 2-[[4-(Difluoromethoxy)benzoyl]amino]-4,4-dimethyl-5,6-dihydrocyclopenta[b]thiophene-3-carboxylic acid]
IC50 [4]: 277 nM

CC1(C)Cc2c(sc(NC(=O)c3ccncn3)c2C(=O)O)C(C)(C)C1 [#205, 5,5,7,7-Tetramethyl-2-(pyrimidine-4-carbonylamino)-4,6-dihydrobenzothiophene-3-carboxylic acid]
IC50 [4]: 740 nM

CC1(C)Cc2c(sc(NC(=O)c3ccc(N4CCOCC4)nc3)c2C(=O)O)C(C)(C)C1 [#201, 5,5,7,7-Tetramethyl-2-[(6-morpholinopyridine-3-carbonyl)amino]-4,6-dihydrobenzothiophene-3-carboxylic acid]
IC50 [4]: 150 nM

COCCNc1ccc(C(=O)Nc2sc3c(c2C(=O)O)C(C)(C)CC3)cc1 [Compound #64, 2-[[4-(2-Methoxyethylamino)benzoyl]amino]-4,4-dimethyl-5,6-dihydrocyclopenta[b]thiophene-3-carboxylicacid]
IC50 [4]: 90 nM

CC1(C)Cc2c(sc(NC(=O)c3ccc(NC4CCNCC4)cc3)c2C(=O)O)C(C)(C)C1 [Compound #131, hydrochloride salt]
IC50 [4]: 350 nM

CC1(C)CCc2c(sc(NC(=O)c3cccc(N4CCOCC4)c3)c2C(=O)O)C1 [#203, 6,6-Dimethyl-2-[(3-morpholinobenzoyl)amino]-5,7-dihydro-4H-benzothiophene-3-carboxylic acid]
IC50 [4]: 130 nM

Cn1cc(C(=O)Nc2sc3c(c2C(=O)O)CC(C)(C)CC3(C)C)cn1 [#176, 5,5,7,7-Tetramethyl-2-[(1-methylpyrazole-4-carbonyl)amino]-4,6-dihydrobenzothiophene-3-carboxylic acid]
IC50 [4]: 460 nM

CN1CCN(c2ccc(C(=O)Nc3sc4c(c3C(=O)O)CC(C)(C)CC4(C)C)cc2)CC1 [Compound #80, 5,5,7,7-Tetramethyl-2-[[4-(4-methylpiperazin-1-yl)benzoyl]amino]-4,6-dihydrobenzothiophene-3-carboxylic acid]
IC50 [4]: 310 nM
